Laboratory results: the NIST ThermoML archive (doi:10.1021/je0501843)
Values joined by “and” are separate entries in the source; they are usually repeats but may differ in a detail not shown here. Equal entries are not always repeated.

Assay: molar heat capacity at constant volume
Conditions: Fluid (supercritical or subcritical phases), Vacuum adiabatic calorimetry

FC(F)C(F)(F)F [pentafluoroethane]
Conditions | molar heat capacity at constant volume
382 K, Mass density=585 kg/m3 | 117.04 J/K/mol
382 K, Mass density=687.5 kg/m3 | 116.38 J/K/mol
382 K, Mass density=772.5 kg/m3 | 113.59 J/K/mol
382 K, Mass density=880.7 kg/m3 | 113.14 J/K/mol
382 K, Mass density=972.5 kg/m3 | 113.55 J/K/mol and 110.23 J/K/mol
383 K, Mass density=403.3 kg/m3 | 116.83 J/K/mol
383 K, Mass density=502.6 kg/m3 | 115.94 J/K/mol
383 K, Mass density=585 kg/m3 | 116.44 J/K/mol
383 K, Mass density=687.4 kg/m3 | 115.8 J/K/mol
383 K, Mass density=772.4 kg/m3 | 112.32 J/K/mol
383 K, Mass density=880.7 kg/m3 | 112.41 J/K/mol
383 K, Mass density=972.4 kg/m3 | 107.88 J/K/mol and 110.36 J/K/mol
384 K, Mass density=403.3 kg/m3 | 115.53 J/K/mol
384 K, Mass density=502.6 kg/m3 | 114.75 J/K/mol
384 K, Mass density=585 kg/m3 | 115.28 J/K/mol
384 K, Mass density=687.4 kg/m3 | 113.97 J/K/mol
384 K, Mass density=772.4 kg/m3 | 111.67 J/K/mol
384 K, Mass density=880.6 kg/m3 | 112.26 J/K/mol
384 K, Mass density=972.3 kg/m3 | 108.78 J/K/mol and 109.57 J/K/mol
385 K, Mass density=403.2 kg/m3 | 109.7 J/K/mol
385 K, Mass density=502.5 kg/m3 | 112.54 J/K/mol
385 K, Mass density=584.9 kg/m3 | 115.82 J/K/mol
385 K, Mass density=687.4 kg/m3 | 113.72 J/K/mol
385 K, Mass density=772.3 kg/m3 | 112.59 J/K/mol
385 K, Mass density=880.6 kg/m3 | 111.79 J/K/mol
385 K, Mass density=972.3 kg/m3 | 110.01 J/K/mol and 109.27 J/K/mol
386 K, Mass density=403.2 kg/m3 | 109.65 J/K/mol
386 K, Mass density=502.5 kg/m3 | 114.07 J/K/mol
386 K, Mass density=584.9 kg/m3 | 117.48 J/K/mol
386 K, Mass density=687.3 kg/m3 | 115.04 J/K/mol
386 K, Mass density=772.3 kg/m3 | 114.08 J/K/mol
386 K, Mass density=880.5 kg/m3 | 113.14 J/K/mol
386 K, Mass density=972.2 kg/m3 | 111.04 J/K/mol and 111.43 J/K/mol
387 K, Mass density=403.2 kg/m3 | 111.98 J/K/mol
387 K, Mass density=502.5 kg/m3 | 114.1 J/K/mol
387 K, Mass density=584.9 kg/m3 | 115.44 J/K/mol
387 K, Mass density=687.3 kg/m3 | 115.22 J/K/mol
387 K, Mass density=772.2 kg/m3 | 113.77 J/K/mol
387 K, Mass density=880.4 kg/m3 | 113.04 J/K/mol
387 K, Mass density=972.1 kg/m3 | 109.68 J/K/mol and 111.27 J/K/mol
388 K, Mass density=403.2 kg/m3 | 113.46 J/K/mol
388 K, Mass density=502.5 kg/m3 | 111.2 J/K/mol
388 K, Mass density=584.8 kg/m3 | 114.82 J/K/mol
388 K, Mass density=687.2 kg/m3 | 114.32 J/K/mol
388 K, Mass density=772.2 kg/m3 | 113.36 J/K/mol
388 K, Mass density=880.4 kg/m3 | 110.83 J/K/mol
388 K, Mass density=972 kg/m3 | 109.02 J/K/mol and 109.9 J/K/mol
389 K, Mass density=403.2 kg/m3 | 112.17 J/K/mol
389 K, Mass density=502.4 kg/m3 | 110.52 J/K/mol
389 K, Mass density=584.8 kg/m3 | 116.36 J/K/mol
389 K, Mass density=687.2 kg/m3 | 114.28 J/K/mol
389 K, Mass density=772.1 kg/m3 | 114.22 J/K/mol
389 K, Mass density=880.3 kg/m3 | 112.08 J/K/mol
389 K, Mass density=972 kg/m3 | 110.08 J/K/mol and 110.71 J/K/mol
390 K, Mass density=403.1 kg/m3 | 112.23 J/K/mol
390 K, Mass density=502.4 kg/m3 | 112.47 J/K/mol
390 K, Mass density=584.8 kg/m3 | 115.03 J/K/mol
390 K, Mass density=687.2 kg/m3 | 115.41 J/K/mol
390 K, Mass density=772.1 kg/m3 | 115.46 J/K/mol
390 K, Mass density=880.2 kg/m3 | 113.85 J/K/mol
390 K, Mass density=971.9 kg/m3 | 113.14 J/K/mol and 111.04 J/K/mol
391 K, Mass density=403.1 kg/m3 | 115.12 J/K/mol
391 K, Mass density=502.4 kg/m3 | 111.21 J/K/mol
391 K, Mass density=584.7 kg/m3 | 113.95 J/K/mol
391 K, Mass density=687.1 kg/m3 | 114.69 J/K/mol
391 K, Mass density=772 kg/m3 | 114.4 J/K/mol
391 K, Mass density=880.2 kg/m3 | 113.13 J/K/mol
391 K, Mass density=971.8 kg/m3 | 113.73 J/K/mol and 111.12 J/K/mol
392 K, Mass density=403.1 kg/m3 | 113.94 J/K/mol
392 K, Mass density=502.4 kg/m3 | 111.32 J/K/mol
392 K, Mass density=584.7 kg/m3 | 113.44 J/K/mol
392 K, Mass density=687.1 kg/m3 | 113.17 J/K/mol
392 K, Mass density=772 kg/m3 | 112.45 J/K/mol
392 K, Mass density=880.1 kg/m3 | 111.39 J/K/mol
392 K, Mass density=971.7 kg/m3 | 108.99 J/K/mol and 110.55 J/K/mol
393 K, Mass density=403.1 kg/m3 | 113.84 J/K/mol
393 K, Mass density=502.3 kg/m3 | 114.93 J/K/mol
393 K, Mass density=584.7 kg/m3 | 112.26 J/K/mol
393 K, Mass density=687 kg/m3 | 114.98 J/K/mol
393 K, Mass density=771.9 kg/m3 | 113.77 J/K/mol
393 K, Mass density=880 kg/m3 | 112.82 J/K/mol
393 K, Mass density=971.6 kg/m3 | 109.6 J/K/mol and 110.84 J/K/mol
394 K, Mass density=403.1 kg/m3 | 113.19 J/K/mol
394 K, Mass density=502.3 kg/m3 | 113.53 J/K/mol
394 K, Mass density=584.6 kg/m3 | 113.56 J/K/mol
394 K, Mass density=687 kg/m3 | 116.48 J/K/mol
394 K, Mass density=771.9 kg/m3 | 114.28 J/K/mol
394 K, Mass density=880 kg/m3 | 113.31 J/K/mol
394 K, Mass density=971.6 kg/m3 | 113.46 J/K/mol and 112.41 J/K/mol
395 K, Mass density=403 kg/m3 | 112.66 J/K/mol
395 K, Mass density=502.3 kg/m3 | 112.95 J/K/mol
395 K, Mass density=584.6 kg/m3 | 114.13 J/K/mol
395 K, Mass density=687 kg/m3 | 114.63 J/K/mol
395 K, Mass density=771.8 kg/m3 | 113.37 J/K/mol
395 K, Mass density=879.9 kg/m3 | 112.11 J/K/mol
395 K, Mass density=971.5 kg/m3 | 112.76 J/K/mol and 111.6 J/K/mol
396 K, Mass density=403 kg/m3 | 114.19 J/K/mol
396 K, Mass density=502.3 kg/m3 | 115.6 J/K/mol
396 K, Mass density=584.6 kg/m3 | 113.53 J/K/mol
396 K, Mass density=686.9 kg/m3 | 113.17 J/K/mol
396 K, Mass density=771.8 kg/m3 | 113.35 J/K/mol
396 K, Mass density=879.9 kg/m3 | 112.93 J/K/mol
396 K, Mass density=971.4 kg/m3 | 112.77 J/K/mol and 110.2 J/K/mol
397 K, Mass density=403 kg/m3 | 115.11 J/K/mol
397 K, Mass density=502.2 kg/m3 | 113.37 J/K/mol
397 K, Mass density=584.5 kg/m3 | 112.42 J/K/mol
397 K, Mass density=686.9 kg/m3 | 113.72 J/K/mol
397 K, Mass density=771.7 kg/m3 | 113.23 J/K/mol
397 K, Mass density=879.8 kg/m3 | 113.97 J/K/mol
397 K, Mass density=971.3 kg/m3 | 112.64 J/K/mol and 111.54 J/K/mol
398 K, Mass density=403 kg/m3 | 115.94 J/K/mol
398 K, Mass density=502.2 kg/m3 | 111.91 J/K/mol
398 K, Mass density=584.5 kg/m3 | 113.66 J/K/mol
398 K, Mass density=686.8 kg/m3 | 116.24 J/K/mol
398 K, Mass density=771.7 kg/m3 | 114.52 J/K/mol
398 K, Mass density=879.7 kg/m3 | 113.6 J/K/mol
398 K, Mass density=971.3 kg/m3 | 113.46 J/K/mol and 112.92 J/K/mol
399 K, Mass density=502.2 kg/m3 | 114.43 J/K/mol
399 K, Mass density=584.5 kg/m3 | 115.44 J/K/mol
399 K, Mass density=686.8 kg/m3 | 115.5 J/K/mol
399 K, Mass density=771.6 kg/m3 | 114.85 J/K/mol
399 K, Mass density=879.7 kg/m3 | 112.05 J/K/mol
399 K, Mass density=971.2 kg/m3 | 112.08 J/K/mol
